Laboratory results taken from ChEMBL document CHEMBL5724914, “Linking interpersonal differences in gut microbiota composition and drug biotransformation activity” (2024).

Key:
[1] = (§1) The drug is tested on Z-019 corresponding to rat gut metagenome with ENA study accession number: PRJEB37062 and ENA sample accession number: ERS12561818 for biotransformation under anaerobic condition. The drug concentrations were measured over 9 timepoints collected between 0 and 24 hours of incubation by liquid-chromatography-coupled mass spectrometry (LC–MS); details: 2 µM
[2] = as §1, with “on Z-011” for “on Z-019”, “to mouse” for “to rat”, “number: ERS12561811” for “number: ERS12561818”; details: 2 µM
[3] = as §1, with “Z-007” for “Z-019”, “ERS12561807” for “ERS12561818”; details: 2 µM
[4] = as §1, with “on Z-006” for “on Z-019”, “to mouse” for “to rat”, “number: ERS12561806” for “number: ERS12561818”; details: 2 µM
[5] = as §1, with “Z-005” for “Z-019”, “to” for “to rat gut”, “ERS12561805” for “ERS12561818”; details: 2 µM
[6] = as §1, with “on Z-003” for “on Z-019”, “to pig” for “to rat”, “number: ERS12561803” for “number: ERS12561818”; details: 2 µM
[7] = as §1, with “on WLS-086” for “on Z-019”, “to human” for “to rat”, “number: ERS12561752” for “number: ERS12561818”; details: 2 µM
[8] = as §1, with “on WLS-077” for “on Z-019”, “to human” for “to rat”, “number: ERS12561750” for “number: ERS12561818”; details: 2 µM
[9] = as §1, with “on WLS-010” for “on Z-019”, “to human” for “to rat”, “number: ERS12561743” for “number: ERS12561818”; details: 2 µM
[10] = human gut metagenome, 24 h, 2 µM
[11] = human gut metagenome, 24 h, 2 µM; remark: listed apart in the source
[12] = human gut metagenome, 24 h, 2 µM; remark: listed apart in the source
[13] = human gut metagenome, 24 h, 2 µM; remark: listed apart in the source
[14] = human gut metagenome, 24 h, 2 µM; remark: listed apart in the source
[15] = human gut metagenome, 24 h, 2 µM; remark: listed apart in the source
[16] = human gut metagenome, 24 h, 2 µM; remark: listed apart in the source
[17] = human gut metagenome, 24 h, 2 µM; remark: listed apart in the source
[18] = human gut metagenome, 24 h, 2 µM; remark: listed apart in the source
[19] = human gut metagenome, 24 h, 2 µM; remark: listed apart in the source
[20] = human gut metagenome, 24 h, 2 µM; remark: listed apart in the source
Further: call rule not given here.

SMILES | Bacterial Biotransformation [1] | Bacterial Biotransformation [2] | Bacterial Biotransformation [3] | Bacterial Biotransformation [4] | Bacterial Biotransformation [5] | Bacterial Biotransformation [6] | Bacterial Biotransformation [7] | Bacterial Biotransformation [8] | Bacterial Biotransformation [9] | Bacterial Biotransformation [10] | Bacterial Biotransformation [11] | Bacterial Biotransformation [12] | Bacterial Biotransformation [13] | Bacterial Biotransformation [14] | Bacterial Biotransformation [15] | Bacterial Biotransformation [16] | Bacterial Biotransformation [17] | Bacterial Biotransformation [18] | Bacterial Biotransformation [19] | Bacterial Biotransformation [20]
Cc1ccc(-c2cc(C(F)(F)F)nn2-c2ccc(S(N)(=O)=O)cc2)cc1 [CELECOXIB] | Compound NOT metabolized | Compound NOT metabolized | Compound NOT metabolized | Compound NOT metabolized | Compound NOT metabolized | Compound NOT metabolized | Compound NOT metabolized | Compound metabolized | Compound metabolized | Compound NOT metabolized | Compound NOT metabolized | Compound NOT metabolized | Compound NOT metabolized | Compound metabolized | Compound metabolized | Compound metabolized | Compound metabolized | Compound metabolized | Compound NOT metabolized | Compound NOT metabolized
CN1C(=O)CCS(=O)(=O)C1c1ccc(Cl)cc1 (stereo not given) [CHLORMEZANONE] | Compound NOT metabolized | Compound NOT metabolized | Compound NOT metabolized | Compound NOT metabolized | Compound NOT metabolized | Compound NOT metabolized | Compound metabolized | Compound NOT metabolized | Compound NOT metabolized | Compound NOT metabolized | Compound NOT metabolized | Compound NOT metabolized | Compound NOT metabolized | Compound NOT metabolized | Compound NOT metabolized | Compound NOT metabolized | Compound NOT metabolized | Compound NOT metabolized | Compound NOT metabolized | Compound NOT metabolized
Clc1ccc(Cn2c(CN3CCCC3)nc3ccccc32)cc1 [CLEMIZOLE] | Compound NOT metabolized | Compound NOT metabolized | Compound NOT metabolized | Compound NOT metabolized | Compound NOT metabolized | Compound metabolized | Compound metabolized | Compound NOT metabolized | Compound NOT metabolized | Compound metabolized | Compound metabolized | Compound metabolized | Compound NOT metabolized | Compound NOT metabolized | Compound NOT metabolized | Compound NOT metabolized | Compound metabolized | Compound NOT metabolized | Compound metabolized | Compound NOT metabolized
CN1CCN(C2=Nc3cc(Cl)ccc3Nc3ccccc32)CC1 [CLOZAPINE] | Compound NOT metabolized | Compound NOT metabolized | Compound NOT metabolized | Compound NOT metabolized | Compound NOT metabolized | Compound NOT metabolized | Compound metabolized | Compound NOT metabolized | Compound NOT metabolized | Compound NOT metabolized | Compound NOT metabolized | Compound NOT metabolized | Compound NOT metabolized | Compound metabolized | Compound NOT metabolized | Compound metabolized | Compound metabolized | Compound metabolized | Compound NOT metabolized | Compound NOT metabolized
